Measurements: US8278352B2, “Pesticide compositions and methods” (Commonwealth Scientific & Industrial Research Organisation, priority 2004, dated 2012)
Entries after “also recorded” stand apart in the source; their conditions may differ. Where a name gives a salt, the structure may show the parent alone.

How the values were obtained:
[1] = Stability of ethyl formate and methyl isothiocyanate formulation stored at 25° C.; type: physicochemical; details: for stability when formulated and stored: 25° C., 2 months; for percent of the original fumigant present (M/Mo): formulation stored at 25° C.
Method: The stability of ethyl formate and methyl isothiocyanate as a fumigant formulation stored at 25° C. was assessed for a period of 1 day, 1 month and 2 months. […] This is also graphically represented in FIG. 1.

[2] = 4 tonne outloading trial: fumigant concentration next day; details: 160 g/t, tray of wheat, overnight, 20° C.
Method: During outloading, wheat was treated/fumigated with a 95:5 (w:w) ratio of ethyl formate+methyl isothiocyanate at a rate of 160 g/t. The treated wheat was then transferred by auger into a 4 tonne truck tray and then covered and held overnight (see FIG. 10).

pupae of S. oryzae = test: Emerging adult study on pupae of S. oryzae; type: in vivo, Sitophilus oryzae; details: 25° C.
Method: Table 4 compares the toxicity of ethyl formate alone and ethyl formate+methyl isothiocyanate to pupae of S. oryzae at 25° C. after 6 hours fumigation at two concentrations.
Table 5 compares the toxicity of ethyl formate alone and ethyl formate+methyl isothiocyanate to pupae of S. oryzae at 25° C. after 24 hours fumigation at two concentrations.

[3] = test system: adults of Sitophilus oryzae; test: Toxicity study on adults of Sitophilus oryzae (fumigation, mortality); type: in vivo; details: 25° C., 24 hours fumigation
Method: The insect species studied were laboratory strains of the rice weevil Sitophilus oryzae present as the egg, larvae, pupae or adult and mixed aged cultures thereof in bulk stores of wheat.
Toxicity studies of ethyl formate alone compared with ethyl formate and […] were conducted on adults of the rice weevil Sitophilus oryzae at 25° C. and 24 hours fumigation.

[4] = test system: mixed aged cultures (egg, larvae and pupae) of S. oryzae; test: Emerging adult study on mixed aged cultures of S. oryzae; type: in vivo; details: Sitophilus oryzae, 25° C., 6 hours fumigation, read-out: emerging adult population, % of control
Method: Table 3 compares the toxicity of ethyl formate alone and ethyl formate+methyl isothiocyanate to mixed aged cultures (egg, larvae and pupae) of S. oryzae at 25° C. after 6 hours fumigation at two concentrations.

Question: Which results are given for `CCOC=O` [EtF, ethyl formate]?
Answer: stability when formulated and stored [1]: stable; percent of the original fumigant present (M/Mo) ([1]; 1 Day): 100%; percent of the original fumigant present (M/Mo) ([1]; 1 Month): 102%; percent of the original fumigant present (M/Mo) ([1]; 2 Months): 98.5%; concentration of fumigant component on the next day [2]: below TLV; emerging adult % (pupae of S. oryzae; 34.8 mg/L, 24 hours fumigation): 19%; emerging adult % (pupae of S. oryzae; 67.4 mg/L, 6 hours fumigation): 24%; emerging adult % (pupae of S. oryzae; 67.4 mg/L, 24 hours fumigation): 9%; emerging adult % (pupae of S. oryzae; 101.1 mg/L, 6 hours fumigation): 12%; mortality ([3]; 5.9 mg/L): inactive; also recorded: unaffected; mortality at 5.9 µg/mL ([3]; Sitophilus oryzae, 5.9 mg/L): 0%; mortality at 11.8 µg/mL ([3]; Sitophilus oryzae, 11.8 mg/L): 48%; activity at 67.4 µg/mL ([4]; 67.4 mg/L): 27%; activity at 101.1 µg/mL ([4]; 101.1 mg/L): 5%

Question: Which results are given for `CN=C=S` [MITC, methyl isothiocyanate]?
Answer: stability when formulated and stored [1]: stable; percent of the original fumigant present (M/Mo) ([1]; 1 Day): 100%; percent of the original fumigant present (M/Mo) ([1]; 1 Month): 98%; percent of the original fumigant present (M/Mo) ([1]; 2 Months): 101.5%; concentration of fumigant component on the next day [2]: below TLV
